Molecular target: skeletal myofibrils (myosin ATPase)
Assay: Skeletal Myofibril ATPase Assay
Assay type: biochemical
Conditions: Table 4A
Procedure: Example 12. Skeletal Myofibril ATPase Assay
Overview: Myosin ATPase activity is assessed by using a coupled reaction system, in which ADP generated by the myosin ATPase function is coupled to the disappearance of NADH through the pyruvate kinase/lactate dehydrogenase (PK-LDH) system. ATPase activity produces ADP, which is used as a substrate for PK to produce pyruvate and regenerate ATP. The pyruvate is then used as a substrate by LDH to oxidize NADH to NAD+. The rate of the reaction is monitored through the time-dependent disappearance of NADH using absorbance at 340 nm. Inhibition of ATPase activity by the assayed compounds is indicated by a reduced rate of NADH loss, relative to vehicle-treated controls, over the experimental time window. To assess the selectivity of the assayed compounds for skeletal myofibrils, the compounds are counter-screened in cardiac myofibrils.
Materials: The following stock solutions and reagents were used in the Skeletal Myofibril ATPase Assay:
Stock Solutions of pCa buffer. Combine PIPES, CaCl2, and EGTA solutions with 70 mL of water. Adjust pH to 7.0 and bring final volume to 100 mL.
Buffer A & Buffer B. Buffers were stored on ice until use.
Skeletal Myofibril ATPase Assay Procedure: BSA, ATP, NADH, PEP, and DTT solutions were thawed at room temperature, then transferred to ice. Pellet-frozen myofibrils were transferred with approximately twice the required volume into a sufficiently large tube and capped. Myofibrils were thawed by rolling in a water bath for approximately 15 min at room temperature and cooled on ice. Buffers A and B were prepared by adjusting volumes as necessary for required number of wells and stored on ice. 0.5 μL of the compounds to be assayed were added into wells. 25 μL of Buffer A was dispensed into the wells, followed by 25 μL of Buffer B. The wells were measured for absorbance at 340 nm, using a kinetic protocol in which the wells are read every 1.5-2 min for 45 min. The slope of the data was approximated by subtracting the minimum absorbance value from the maximum value for each well. This was accomplished either in the SoftMax Pro software or in a spreadsheet program such as Excel. Using GraphPad Prism 8.0, the data was normalized by assigning a value of 100% to the 1% DMSO vehicle wells. Typically, a normalized 0% value was simply assigned to a (Max−Min) value of 0. The normalized data was fit to a Four Parameter Logistic sigmoidal equation, constraining the bottom to be 0 or greater. Compounds of Table 1, 2, and 3 were tested and results of the assay appear in Tables 4a-4c. A=IC50 is less than or equal to 10 μM; B═IC50 is greater than 10 μM and less than 100 μM; C═IC50 is greater than 100 μM.

Compound | IC50
CCNC(=O)Cn1nc(-c2ccc(NC34CC(C3)C4)nc2)ccc1=O [Compound I-36, 2-[3-[6-([bicyclo[1.1.1]pentan-1-yl]amino)pyridin-3-yl]-6-oxo-1,6-dihydropyridazin-1-yl]-N-ethylacetamide] | < 10 µM
CCNC(=O)Cn1nc(-c2ccc(CC(F)(F)F)nc2)ccc1=O [Compound I-37, N-ethyl-2-(6-oxo-3-(6-(2,2,2-trifluoroethyl)pyridin-3-yl)pyridazin-1(6H)-yl)acetamide] | 10 to 100 µM
O=C(Cn1nc(-c2ccc(NC34CC(C3)C4)nc2)ccc1=O)N1CCC1 [Compound I-39, 2-(2-(azetidin-1-yl)-2-oxoethyl)-6-(6-(bicyclo[1.1.1]pentan-1-ylamino)pyridin-3-yl)pyridazin-3(2H)-one] | 10 to 100 µM
CCNC(=O)Cn1nc(-c2ccc(N3CC(COC(F)(F)F)C3)nc2)ccc1=O [Compound I-40, N-ethyl-2-(6-oxo-3-(6-(3-((trifluoromethoxy)methyl)azetidin-1-yl)pyridin-3-yl)pyridazin-1(6H)-yl)acetamide] | 10 to 100 µM
CCNC(=O)Cn1nc(-c2ccc(NC34CCC(CC3)CC4)nc2)ccc1=O [Compound I-41, 2-(3-(6-(bicyclo[2.2.2]octan-1-ylamino)pyridin-3-yl)-6-oxopyridazin-1(6H)-yl)-N-ethylacetamide] | 10 to 100 µM
CCNC(=O)Cn1nc(-c2cnc(NC34CC(O)(C3)C4)nc2)ccc1=O [Compound I-42, N-ethyl-2-(3-(2-((3-hydroxybicyclo[1.1.1]pentan-1-yl)amino)pyrimidin-5-yl)-6-oxopyridazin-1(6H)-yl)acetamide] | 10 to 100 µM
CCNC(=O)Cn1nc(-c2ccc(N3CC4CC(C3)O4)nc2)ccc1=O [Compound I-43, 2-(3-(6-(6-oxa-3-azabicyclo[3.1.1]heptan-3-yl)pyridin-3-yl)-6-oxopyridazin-1(6H)-yl)-N-ethylacetamide] | 10 to 100 µM
CCNC(=O)Cn1nc(-c2ccc(NC3COC3)nc2)ccc1=O [Compound I-44, N-ethyl-2-(3-(6-(oxetan-3-ylamino)pyridin-3-yl)-6-oxopyridazin-1(6H)-yl)acetamide] | < 10 µM
CCNC(=O)Cn1nc(-c2ccc(NC3CCOCC3)nc2)ccc1=O [Compound I-45, N-ethyl-2-(6-oxo-3-(6-((tetrahydro-2H-pyran-4-yl)amino)pyridin-3-yl)pyridazin-1(6H)-yl)acetamide] | > 100 µM
O=C(Cn1nc(-c2ccc(NC34CC(C3)C4)nc2)ccc1=O)NC12CC(C1)C2 [Compound I-46, N-(bicyclo[1.1.1]pentan-1-yl)-2-(3-(6-(bicyclo[1.1.1]pentan-1-ylamino)pyridin-3-yl)-6-oxopyridazin-1(6H)-yl)acetamide] | < 10 µM
CCNC(=O)Cn1nc(-c2ccc(NC)nc2)ccc1=O [Compound I-47, N-ethyl-2-(3-(6-(methylamino)pyridin-3-yl)-6-oxopyridazin-1(6H)-yl)acetamide] | < 10 µM
CCNC(=O)Cn1nc(-c2ccc(N3CCCC3C(F)(F)F)nc2)ccc1=O (centres unmarked) [Compound I-48, N-ethyl-2-(6-oxo-3-(6-(2-(trifluoromethyl)pyrrolidin-1-yl)pyridin-3-yl)pyridazin-1(6H)-yl)acetamide] | < 10 µM
CCNC(=O)Cn1nc(-c2cnc(OCCOC(F)(F)F)nc2)ccc1=O [Compound I-49, N-ethyl-2-(6-oxo-3-(2-(2-(trifluoromethoxy)ethoxy)pyrimidin-5-yl)pyridazin-1(6H)-yl)acetamide] | 10 to 100 µM
O=C(Cn1nc(-c2cnc(NC34CC(C3)C4)nc2)ccc1=O)NC1CCC1 [Compound I-50, 2-(3-(2-(bicyclo[1.1.1]pentan-1-ylamino)pyrimidin-5-yl)-6-oxopyridazin-1(6H)-yl)-N-cyclobutylacetamide] | < 10 µM
O=C(Cn1nc(-c2cnc(OCC(F)(F)F)nc2)ccc1=O)NC12CC(C1)C2 [Compound I-51, N-(bicyclo[1.1.1]pentan-1-yl)-2-(6-oxo-3-(2-(2,2,2-trifluoroethoxy)pyrimidin-5-yl)pyridazin-1(6H)-yl)acetamide] | < 10 µM
O=C(Cn1nc(-c2ccc(NC3CCC3)nc2)ccc1=O)NC1CCC1 [Compound I-52, N-cyclobutyl-2-(3-(6-(cyclobutylamino)pyridin-3-yl)-6-oxopyridazin-1(6H)-yl)acetamide] | < 10 µM

Compound | IC50
CCNC(=O)Cn1nc(-c2ccc(NC(C)(C)C)nc2)ccc1=O [Compound I-53, 2-(3-(6-(tert-butylamino)pyridin-3-yl)-6-oxopyridazin-1(6H)-yl)-N-ethylacetamide] | < 10 µM
O=C(Cn1nc(-c2ccc(NC34CC(C3)C4)nc2)ccc1=O)NC1CCC1 [Compound I-54, 2-(3-(6-(bicyclo[1.1.1]pentan-1-ylamino)pyridin-3-yl)-6-oxopyridazin-1(6H)-yl)-N-cyclobutylacetamide] | < 10 µM
CCNC(=O)Cn1nc(-c2ccc(N3CC(OC(F)F)C3)nc2)ccc1=O [Compound I-55, 2-(3-(6-(3-(difluoromethoxy)azetidin-1-yl)pyridin-3-yl)-6-oxopyridazin-1(6H)-yl)-N-ethylacetamide] | 10 to 100 µM
O=C(Cn1nc(-c2ccc(OCC(F)(F)F)nc2)ccc1=O)NC1CCC1 [Compound I-56, N-cyclobutyl-2-(6-oxo-3-(6-(2,2,2-trifluoroethoxy)pyridin-3-yl)pyridazin-1(6H)-yl)acetamide] | < 10 µM
CCNC(=O)Cn1nc(-c2cnc(NC34CC(F)(C3)C4)nc2)ccc1=O [Compound I-57, N-ethyl-2-(3-(2-((3-fluorobicyclo[1.1.1]pentan-1-yl)amino)pyrimidin-5-yl)-6-oxopyridazin-1(6H)-yl)acetamide] | < 10 µM
CCNC(=O)Cn1nc(-c2ccc(NC34CC(CO)(C3)C4)nc2)ccc1=O [Compound I-58, N-ethyl-2-(3-(6-((3-(hydroxymethyl)bicyclo[1.1.1]pentan-1-yl)amino)pyridin-3-yl)-6-oxopyridazin-1(6H)-yl)acetamide] | 10 to 100 µM
CCNC(=O)Cn1nc(-c2cnc(NC34CC(C3)C4)nc2)ccc1=O [Compound I-59, 2-[3-(2-[bicyclo[1.1.1]pentan-1-ylamino]pyrimidin-5-yl)-6-oxopyridazin-1-yl]-N-ethylacetamide] | < 10 µM
CCNC(=O)Cn1nc(-c2ccc(NC34CC(C)(C3)C4)nc2)ccc1=O [Compound I-60, N-ethyl-2-(3-(6-((3-methylbicyclo [1.1.1]pentan-1-yl)amino)pyridin-3-yl)-6-oxopyridazin-1(6H)-yl)acetamide] | < 10 µM
CCNC(=O)Cn1nc(-c2ccc(N(C)C3CCC3)nc2)ccc1=O [Compound I-61, 2-(3-(6-(cyclobutyl(methyl)amino)pyridin-3-yl)-6-oxopyridazin-1(6H)-yl)-N-ethylacetamide] | < 10 µM
CCNC(=O)Cn1nc(-c2ccc(NC3CCC3)nc2)ccc1=O [Compound I-62, 2-(3-(6-(cyclobutylamino)pyridin-3-yl)-6-oxopyridazin-1(6H)-yl)-N-ethylacetamide] | < 10 µM
CCNC(=O)Cn1nc(-c2ccc(SC)nc2)ccc1=O [Compound I-63, N-ethyl-2-(3-(6-(methylthio)pyridin-3-yl)-6-oxopyridazin-1(6H)-yl)acetamide] | < 10 µM
CCNC(=O)Cn1nc(-c2ccc(N(C)C34CC(C3)C4)nc2)ccc1=O [Compound I-64, 2-(3-(6-(bicyclo[1.1.1]pentan-1-yl(methyl)amino)pyridin-3-yl)-6-oxopyridazin-1(6H)-yl)-N-ethylacetamide] | < 10 µM
CCNC(=O)Cn1nc(-c2ccc(OC(F)F)[n+]([O-])c2)ccc1=O [Compound I-65, 2-(difluoromethoxy)-5-(1-(2-(ethylamino)-2-oxoethyl)-6-oxo-1,6-dihydropyridazin-3-yl)pyridine 1-oxide] | > 100 µM
CC[C@@H](C)NC(=O)Cn1nc(-c2ccc(OC(F)F)nc2)ccc1=O [Compound I-66, (R)-N-(sec-butyl)-2-(3-(6-(difluoromethoxy)pyridin-3-yl)-6-oxopyridazin-1(6H)-yl)acetamide] | < 10 µM
CC[C@H](C)NC(=O)Cn1nc(-c2ccc(OC(F)F)nc2)ccc1=O [Compound I-67, (S)-N-(sec-butyl)-2-(3-(6-(difluoromethoxy)pyridin-3-yl)-6-oxopyridazin-1(6H)-yl)acetamide] | < 10 µM
O=C(Cn1nc(-c2ccc(OC(F)F)nc2)ccc1=O)NC1(c2ccccc2)CCC1 [Compound I-68, 2-(3-(6-(difluoromethoxy)pyridin-3-yl)-6-oxopyridazin-1(6H)-yl)-N-(1-phenylcyclobutyl) acetamide] | < 10 µM
